Reference: patent publication US20250134874A1, “PHARMACEUTICAL FORMULATIONS COMPRISING 3-({[(4R)-7-{METHYL[4-(PROPAN-2-YL)PHENYL]AMINO}-3,4-DIHYDRO-2H-1-BENZOPYRAN-4-YL]METHYL}AMINO)PYRIDINE-4-CARBOXYLIC ACID” (TACHYON THERAPEUTICS, INC., priority 2021, published 2025)

Columns and labels:
[1] = Particle size distribution by dynamic light scattering (Zetasizer); type: physicochemical; details: in length
Protocol: Results: Particle size distribution as determined by dynamic light scattering of Compound 1 lysine salt nanosuspension post milling is shown below in Table 1B. Samples for particle size distribution was prepared by diluting the Nano milled sample by 100-fold with Di-water. Zetasizer was utilized to measure particle size distribution. PdI is the representation of the distribution of size populations within a given sample. This is a numerical range from 0.0 (for a perfectly uniform sample) through 1.0 (for a highly polydisperse sample with multiple particle size populations). The value D10 refers to a diameter of particles in the sample wherein 10% of the particles in the sample have a diameter smaller than this value (118.8 nm). The value D50 refers to a diameter of particles in the sample wherein 50% of the particles have a diameter smaller than this value (249.0 nm). The value D90 refers to a diameter of particles in the sample wherein 90% of the particles in the sample have a diameter smaller than this value (611 nm).
The stability of the nanosuspension based on particle size distribution under refrigerated condition and room condition is shown below in Table 2.

[2] = In vitro dissolution testing (USP Apparatus 1, basket); type: physicochemical; details: DI water
Protocol: Dissolution and assay testing for API, F1, F7, F9, F10, F11 and F12.
• 6. Transfer 500 mL of DI water dissolution medium into each vessel. • 7. Equilibrate the dissolution medium to 37.0±0.5° C. • 8. Transfer 600 mg of each formulation granule into a capsule. • 9. Transfer a capsule into a basket and lower to the position. Start stirring at 100 RPM. • 10. At the stated time(s), sample 1 mL solutions by auto-sampler. Assay Sample Preparation (0.3 mg/mL): • 11. Weigh out 18 mg of granules into a […] volumetric flask. • 12. Dissolve and dilute up to the volume with Diluent (50% ACN in H2O). • 13. Mix well.

## CC(C)c1ccc(N(C)c2ccc3c(c2)OCC[C@H]3CNc2cnccc2C(=O)O)cc1.NCCCC[C@H](N)C(=O)O [Compound 1 Lysine salt, 3-({[(4R)-7-{methyl[4-(propan-2-yl)phenyl]amino}-3,4-dihydro-2H-1-benzopyran-4-yl]methyl}amino)pyridine-4-carboxylic acid, L-lysine salt]
[1]
  initial particle size prior to milling: 6-15 micrometer
[2]
  release after 120 minutes: no release at all
